Source: patent publication US20220168430A1, “THERAPEUTIC METHODS FOR TREATING HEPATITIS B” (priority 2019, published 2022)
Where two headings read alike, the source gives them in different places.

Tested on: HBV rcDNA
Experiment: Dual agent combination in HepDE19 cells, rcDNA by Quantigene 2.0 bDNA assay (Examples 5-8)
Type: cell-based, HBV; HepDE19 (HepG2 human hepatocarcinoma derived)
Conditions: Hepatitis B virus; for EC50: read-out: Avg. Inhibitor A EC50
Experimental: In vitro dual agent combination studies were conducted using the method of Prichard and Shipman 1990 (Prichard M N, Shipman C, Jr. 1990. Antiviral Res 14:181-205). The HepDE19 cell culture system is a HepG2 (human hepatocarcinoma) derived cell line that supports HBV DNA replication and cccDNA formation under control the control of a CMV Tet-off promoter system (Guo et al. 2007. J Virol 81:12472-84). HepDE19 (50,000 cells/well) were plated in 96 well collagen-coated tissue-culture treated microtiter plates in DMEM/F12 medium supplemented with 10% fetal bovine serum+1% penicillin-streptomycin with tetracycline (1 μg/mL) and incubated in a humidified incubator at 37° C. and 5% CO2 overnight. Next day, the cells were switched to fresh medium without tetracycline and incubated for 4 hrs at 37° C. and 5% CO2. The cells were switched to fresh medium and treated with inhibitor A and inhibitor B, at concentration range spanning their respective EC50 values. […] The two inhibitors were tested both singly as well as in combinations in a checkerboard fashion such that each concentration of inhibitor A was combined with each concentration of inhibitor B to determine their combination effects on inhibition of rcDNA production. There were four replicates of each concentration combination in each experiment. The plates were incubated for 7 days in a humidified incubator at 37° C. and 5% CO2. The level of rcDNA present in the wells was measured using a Quantigene 2.0 bDNA assay kit (Affymetrix, Santa Clara, Calif.) with HBV specific custom probe set (genotype D ayw) and according to the manufacturer's instructions and read using a luminescence plate reader and the relative luminescence units (RLU) data generated from each well was calculated as % inhibition of the untreated control wells and analyzed using the MacSynergy II program to determine whether the combinations were synergistic, additive or antagonistic using the interpretive guidelines established by Prichard and Shipman (Prichard M N, Shipman C, Jr. 1990. […] Each experiment was repeated at least three times and the averages and standard deviations of individual determinations was calculated to derive the conclusion. Concurrently, in each experiment, the effect of inhibitor combinations on cell viability was assessed using replicate plates in triplicates that were used to determine the ATP content as a measure of cell viability using the Cell-Titer Glo reagent (Promega, Madison, Wis.) as per the manufacturer's instructions.

**Q.** Which results are given for Cn1cnc(COC(=O)N[C@H]2CCc3c(C(=O)Nc4ccc(F)c(Cl)c4)ccc(F)c32)n1 [Compound 1]?
**A.** inhibition at 0.005 µM (HepDE19, Cmpd 1 0.005 μM, ETV μM by grid row: r7 0.0250, r8 0.0083, r9 0.0028, r10 0.0009, r11 0.0003, r12 0, HepDE19 cells, Expt 1, read-out: AVERAGE % INHIBITION, rcDNA): -5.55%; inhibition at 0.01 µM (HepDE19, Cmpd 1 0.010 μM, ETV μM by grid row: r7 0.0250, r8 0.0083, r9 0.0028, r10 0.0009, r11 0.0003, r12 0, HepDE19 cells, Expt 1, read-out: AVERAGE % INHIBITION, rcDNA): -2.14%; inhibition at 0.02 µM (HepDE19, Cmpd 1 0.020 μM, ETV μM by grid row: r7 0.0250, r8 0.0083, r9 0.0028, r10 0.0009, r11 0.0003, r12 0, HepDE19 cells, Expt 1, read-out: AVERAGE % INHIBITION, rcDNA): 20.8%; inhibition at 0.039 µM (HepDE19, Cmpd 1 0.039 μM, ETV μM by grid row: r7 0.0250, r8 0.0083, r9 0.0028, r10 0.0009, r11 0.0003, r12 0, HepDE19 cells, Expt 1, read-out: AVERAGE % INHIBITION, rcDNA): 28.3%; inhibition at 0.156 µM (HepDE19, Cmpd 1 0.156 μM, ETV μM by grid row: r7 0.0250, r8 0.0083, r9 0.0028, r10 0.0009, r11 0.0003, r12 0, HepDE19 cells, Expt 1, read-out: AVERAGE % INHIBITION, rcDNA): 82%; inhibition at 1.25 µM (HepDE19, Cmpd 1 1.25 μM, ETV μM by grid row: r7 0.0250, r8 0.0083, r9 0.0028, r10 0.0009, r11 0.0003, r12 0, HepDE19 cells, Expt 1, read-out: AVERAGE % INHIBITION, rcDNA): 98.9%; EC50 (HepDE19, Cmpd 1 in combination study with ETV, n = 3): 0.059 µM; EC50 (HepDE19, Cmpd 1 in combination study with SIRNA-NP, n = 3): 0.064 µM; EC50 (HepDE19, Cmpd 1 in combination study with TAF, n = 4): 0.074 µM; EC50 (HepDE19, Cmpd 1 in combination study with TDF, n = 3): 0.08 µM; inhibition at 0.005 µM (HepDE19, Expt 1 (with TDF), Compound 1 0.005 μM alone, read-out: ADDITIVE INHIBITION): -44.9%; inhibition at 0.005 µM (HepDE19, Expt 1 (with TDF), Compound 1 0.005 μM alone, read-out: AVERAGE % INHIBITION): -44.9%; inhibition at 0.01 µM (HepDE19, Expt 1 (with TDF), Compound 1 0.010 μM alone, read-out: ADDITIVE INHIBITION): -40.7%; inhibition at 0.01 µM (HepDE19, Expt 1 (with TDF), Compound 1 0.010 μM alone, read-out: AVERAGE % INHIBITION): -40.7%; inhibition at 0.02 µM (HepDE19, Expt 1 (with TDF), Compound 1 0.020 μM alone, read-out: ADDITIVE INHIBITION): -21.6%; inhibition at 0.02 µM (HepDE19, Expt 1 (with TDF), Compound 1 0.020 μM alone, read-out: AVERAGE % INHIBITION): -21.6%; inhibition at 0.039 µM (HepDE19, Expt 1 (with TDF), Compound 1 0.039 μM alone, read-out: ADDITIVE INHIBITION): 0.64%; inhibition at 0.039 µM (HepDE19, Expt 1 (with TDF), Compound 1 0.039 μM alone, read-out: AVERAGE % INHIBITION): 0.64%; inhibition at 0.156 µM (HepDE19, Expt 1 (with TDF), Compound 1 0.156 μM alone, read-out: ADDITIVE INHIBITION): 68.2%; inhibition at 0.156 µM (HepDE19, Expt 1 (with TDF), Compound 1 0.156 μM alone, read-out: AVERAGE % INHIBITION): 68.2%; inhibition at 1.25 µM (HepDE19, Expt 1 (with TDF), Compound 1 1.250 μM alone, read-out: ADDITIVE INHIBITION): 97.3%; inhibition at 1.25 µM (HepDE19, Expt 1 (with TDF), Compound 1 1.250 μM alone, read-out: AVERAGE % INHIBITION): 97.3%; inhibition at 0.007 µM (HepDE19, Expt 1, Cmpd 1 0.007 μM alone, read-out: AVERAGE % INHIBITION): -23.5%; inhibition at 0.067 µM (HepDE19, Expt 1, Cmpd 1 0.067 μM alone): 43.7%; inhibition at 0.2 µM (HepDE19, Expt 1, Cmpd 1 0.200 μM alone): 78.4%; inhibition at 0.6 µM (HepDE19, Expt 1, Cmpd 1 0.600 μM alone): 92.9%; inhibition at 0.005 µM (HepDE19, Expt 1, Compound 1 0.005 μM alone, read-out: AVERAGE % INHIBITION): -81.7%; inhibition at 0.01 µM (HepDE19, Expt 1, Compound 1 0.010 μM alone, read-out: AVERAGE % INHIBITION): -86.4%; inhibition at 0.02 µM (HepDE19, Expt 1, Compound 1 0.020 μM alone, read-out: AVERAGE % INHIBITION): -84.7%; inhibition at 0.039 µM (HepDE19, Expt 1, Compound 1 0.039 μM alone, read-out: AVERAGE % INHIBITION): -14.2%; inhibition at 0.156 µM (HepDE19, Expt 1, Compound 1 0.156 μM alone, read-out: AVERAGE % INHIBITION): 59.4%; inhibition at 1.25 µM (HepDE19, Expt 1, Compound 1 1.250 μM alone, read-out: AVERAGE % INHIBITION): 98.3%; inhibition at 0.007 µM (HepDE19, Expt 2 (with TDF), Compound 1 0.007 μM alone, read-out: AVERAGE % INHIBITION): -35.1%; inhibition at 0.067 µM (HepDE19, Expt 2 (with TDF), Compound 1 0.067 μM alone): 28.1%; inhibition at 0.2 µM (HepDE19, Expt 2 (with TDF), Compound 1 0.200 μM alone): 80.5%; inhibition at 0.6 µM (HepDE19, Expt 2 (with TDF), Compound 1 0.600 μM alone): 95.2%; inhibition at 0.005 µM (HepDE19, Expt 2, Cmpd 1 0.005 μM alone, read-out: AVERAGE % INHIBITION): 5.58%; inhibition at 0.01 µM (HepDE19, Expt 2, Cmpd 1 0.010 μM alone, read-out: AVERAGE % INHIBITION): -0.61%; inhibition at 0.02 µM (HepDE19, Expt 2, Cmpd 1 0.020 μM alone, read-out: AVERAGE % INHIBITION): 6.6%; inhibition at 0.039 µM (HepDE19, Expt 2, Cmpd 1 0.039 μM alone, read-out: AVERAGE % INHIBITION): 25.9%; inhibition at 0.156 µM (HepDE19, Expt 2, Cmpd 1 0.156 μM alone, read-out: AVERAGE % INHIBITION): 84.1%; inhibition at 1.25 µM (HepDE19, Expt 2, Cmpd 1 1.250 μM alone, read-out: AVERAGE % INHIBITION): 98.3%
